“Also recorded” adds a separate entry of the source. Read-outs that look alike come from different tables or passages of the source.
Tests used:
HSV-1 F [1] = assay: Virus neutralization end-point dilution assay on Vero cells, 100 TCID50; format: cell-based; settings: Table 4, read-out: concentration required for 50% neutralization
Procedure: (§1) Neutralizing activity of antibodies were determined by a standard end-point dilution assay using Vero cells grown as monolayers in microtiter plates. […] After 72 h incubation at 37° C. the antibody concentration required to prevent the formation of virus-induced CPE to 100% was determined as complete neutralization titer.
(§2) Neutralizing activity of antibodies was determined by end-point dilution assay as described previously (16). Briefly, serial dilutions of antibodies were incubated with 100 TCID50 of HSV-1 or HSV-2 for 1 h at 37° C. in cell culture medium. The antibody virus inoculum was applied to Vero cell monolayers grown in microtiter plates and cytopathic effect (CPE) was scored after 72 h incubation at 37° C. The antibody concentration required for reducing virus-induced CPE by 100% was determined as complete neutralization titer. […] For control purposes virus without antibody and antibody alone was used to induce maximal CPE or no CPE, respectively.

HSV-2 G = assay: as above; format: cell-based; settings: 100% reduction of CPE, 72 h
Procedure: as §1, §2

HSV-1 = assay: Plaque-reduction assay with or without human complement; format: cell-based; settings: 2 μg/ml, with or without 10% human complement
HSV-1 F [2] = assay: Passive immunization of NOD/SCID mice 24 h before intravaginal HSV-1 challenge; format: in vivo
Procedure: Mice were infected intravaginally with 1×10^6 TCID50/20 μl of the neurovirulent HSV-1 strain F. Infected mice with symptoms of weight loss, vulvitis/vaginitis or neurological diseases were killed, and their organs examined for infectious virus by titration on Vero cell monolayers as described previously. Non-infected mice were killed at day 30. Animals per group n=7.
Animals per group n=7 for PBS, n=9 all other groups.
(§3) Anesthetized female nonobese diabetic/severe combined immunodeficient (NOD-SCID) mice (NOD.CB17-Prkdc^scid/J, Charles River Laboratories, Research Models and Services, Sulzfeld, Germany), 6-8 weeks of age, were challenged intravaginally with 20 μl inoculum of 1×10^6 TCID50 HSV-1 F per mouse. Skin glue (Epiglu, Meyer-Haake Medical Innovations, Wehrheim, Germany) was applied onto the vulva to prevent discharge of the virus inoculum. […] Mice were examined daily after viral inoculation for loss of weight, vulvitis/vaginitis (redness, mucopurulent discharge and signs of inflammation) and neurological disease. Mice displaying any of theses symptoms were sacrificed immediately. […] Mice were assessed for infection by determination of virus titers from vaginal irrigations obtained on days 1, 2, 4, 6 and 8 after infection and at the time of death using the endpoint dilution assay on Vero cells. Viral loads in organs (spleen, adrenal gland, lung heart, liver, kidney, spinal cord, and brain) of sacrificed mice were determined after homogenization of organs by titration on Vero cell monolayers as described elsewhere (41). Each test and control group contained 9-10 animals with detectable HSV-1 infection.
Natural killer (NK) cells accumulating at the site of HSV-2 infection in humans (28) are the early source of interferon-γ (45), which plays an essential role for the control of HSV infection (2, 45, 62).

HSV-1 F [3] = assay: Post-exposure treatment of NOD/SCID mice with established HSV-1 infection; format: in vivo
Procedure: Infected animals per group n=7.
Vaginal virus titers of antibody or control treated mice were determined from vaginal irrigations cultured on Vero cell monolayers. Error bars indicate standard deviation.
as §3

HSV1 strain 342 hv [4] = assay: Intravaginal HSV1 infection of C57BL/6J mice, i.p. antibody; format: in vivo; settings: i.p. post infection
Excerpt: Therefore, C57BL/6J mice were infected by application of the HSV1 strain 342 hv on the intact vaginal mucosa membrane.

[5] = tested on: truncated HSV-1 glycoprotein B (gB) expressed in COS-1 cells; format: binding
[6] = tested on: HSV-1 wild-type strains and gB mutant viruses; assay: Mouse protection experiments with gB mutant viruses; format: in vivo, C57BL/6 mice; settings: i.p. 24 hours before
gB derived peptides = format: binding, HSV-1
HSV-1 F [7] = assay: Pre- versus post-attachment neutralization assay; format: cell-based; settings: 100 TCID50 HSV-1, 4° C., Vero cells
Procedure: The highest antibody and polyvalent human IgG titer, respectively, preventing virus induced cytopathic effect (CPE) in ten individual inoculated cell monolayers to 100% and 50% relative to controls were determined after 72 h incubation at 37° C. and being considered as the endpoint. Standard errors of the mean of three independent experiments were <0.1.
Neutralization titers were determined after 72 h as described in the standard neutralization assay above.

HSV1 strain 342 hv [8] = settings: administration 24 h prior to viral inoculation; cited from earlier work

mAb 2c: murine monoclonal IgG2a antibody specific for glycoprotein B of HSV1 and HSV2; VH SEQ ID NO: 9, VL SEQ ID NO: 10
IC50 (HSV-1 F [1]): 4.3 nM
Concentration for complete neutralization of 100 TCID50 (HSV-2 G): 31 nM
complement dependence of HSV neutralization (HSV-1): neutralize HSV complement-independent
Median survival time prolonged compared to PBS control (HSV-1 F [2]; 5 mg/kg i.v., 24 h prior to challenge): 2.6 fold
protection against lethal encephalitis (HSV-1 F [2]; 15 mg/kg i.v., 24 h prior to infection): fully protected against lethal encephalitis; also recorded: full protection
Viral titres in organs of protected mice (HSV-1 F [2]; 15 mg/kg, detection limit): < 1×10^2 TCID50
protection against lethal infection (HSV-1 F [2]; low antibody doses (2.5 mg/kg, 5 mg/kg)): not fully protected against lethal infection
survival (HSV-1 F [2]; single i.v. dose of 5 mg/kg, 24 h prior to infection): prolongs the survival
protection from lethal outcome of established infection (HSV-1 F [3]; 15 mg/kg i.v. at 24 h, 40 h and 56 h post infection): completely protected from the lethal outcome of infection; also recorded: completely prevented lethal outcome of infection
virions in sensory neurons and respective organs (HSV-1 F [3]; one month after infection): no virions were detected
inhibition of viral replication and prevention of lethal disease (HSV1 strain 342 hv [4]; CD4+ and CD8+ depleted animals): capable to inhibit viral replication as well as to prevent a generalized, lethal progressing disease with a high efficiency
inhibition of viral propagation in vaginal mucosa and inflammatory lesions (HSV1 strain 342 hv [4]; immunocompetent and CD4+ T cell depleted animals): capable of inhibiting the viral propagation in the vaginal mucosa membrane and the formation of inflammatory lesions
Reactivity ([5]; gB(1-470)): −
Reactivity ([5]; gB(1-487)): +
Reactivity ([5]; gB(1-503)): +
Reactivity ([5]; gB(1-505)): +
Reactivity ([5]; gB(1-630)): +
Reactivity ([5]; gB(1-720)): +
Reactivity ([5]; gB(1-904) (full length gB)): +
Reactivity ([5]; pSVL, expression vector, negative control): −
protective effect in vivo ([6]; mice inoculated with mutants R126 (Y303N), R1375 (R304Q), B4.1 (E305K)): ineffective
protective effect in vivo ([6]; mice inoculated with mutants R1435 (H308Y) or R233 (R328H) or wild-type viruses): effective
binding strength to duotope (gB derived peptides; duotope FED-βA-βA-FYGYRE): almost saturation of the fluorescence signal intensity
binding strength to duotope (gB derived peptides; duotope YSQFMG-βA-FYGYRE versus peptide 172[…]184): only slightly increased
pre-attachment versus post-attachment neutralization (HSV-1 F [7]): Equal neutralization efficacy
protection against infection (HSV1 strain 342 hv [8]): efficiently protected the animals against infection

Reference: patent publication US9657088B2, “Anti-HSV antibody” (priority 2009, dated 2017)
